# Test results published in ChEMBL document CHEMBL1155782 (Bioorg Med Chem, 2008).
# pKi: −log10 of the molar value.
# Legend:
# Carbonic anhydrase 13 = Carbonic anhydrase 13 (Mus musculus, UniProt Q9D6N1)
# Description: Inhibition of mouse carbonic anhydrase 13 by stopped-flow CO2 hydration assay
# Carbonic anhydrase 9 = Carbonic anhydrase 9 (Homo sapiens, UniProt Q16790)
# Description: Inhibition of human carbonic anhydrase 9 catalytic domain by stopped-flow CO2 hydration assay
# Carbonic anhydrase 7 = Carbonic anhydrase 7 (Homo sapiens, UniProt P43166)
# Description: Inhibition of human carbonic anhydrase 7 by stopped-flow CO2 hydration assay
# Carbonic anhydrase 6 = Carbonic anhydrase 6 (Homo sapiens, UniProt P23280)
# Description: Inhibition of human carbonic anhydrase 6 by stopped-flow CO2 hydration assay
# Carbonic anhydrase 3 = Carbonic anhydrase 3 (Homo sapiens, UniProt P07451)
# Carbonic anhydrase 3, sequence (P07451 whole entry): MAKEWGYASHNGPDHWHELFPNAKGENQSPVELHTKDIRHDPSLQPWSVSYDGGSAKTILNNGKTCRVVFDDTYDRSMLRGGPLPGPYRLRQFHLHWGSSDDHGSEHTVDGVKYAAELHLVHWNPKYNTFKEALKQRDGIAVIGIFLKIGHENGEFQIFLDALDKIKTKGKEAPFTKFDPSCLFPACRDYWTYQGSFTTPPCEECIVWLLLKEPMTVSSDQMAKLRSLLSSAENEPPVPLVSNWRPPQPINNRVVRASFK
# Description: Inhibition of human carbonic anhydrase 3 by stopped-flow CO2 hydration assay
# Carbonic anhydrase 4 = Carbonic anhydrase 4 (Homo sapiens, UniProt P22748)
# Carbonic anhydrase 4, sequence (P22748 whole entry): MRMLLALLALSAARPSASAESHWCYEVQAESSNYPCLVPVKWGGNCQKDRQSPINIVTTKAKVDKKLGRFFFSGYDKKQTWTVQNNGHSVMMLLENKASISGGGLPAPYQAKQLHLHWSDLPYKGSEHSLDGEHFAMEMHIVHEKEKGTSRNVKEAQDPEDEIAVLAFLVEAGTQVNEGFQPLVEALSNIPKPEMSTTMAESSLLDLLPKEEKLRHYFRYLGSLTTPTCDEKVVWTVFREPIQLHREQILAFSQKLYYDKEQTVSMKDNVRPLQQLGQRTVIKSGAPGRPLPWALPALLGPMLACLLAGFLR
# Description: Inhibition of human carbonic anhydrase 4 by stopped-flow CO2 hydration assay
# [1] = biological target: Carbonic anhydrase 5A, mitochondrial (Homo sapiens, UniProt P35218)
# Carbonic anhydrase 5A, mitochondrial, sequence (P35218 whole entry): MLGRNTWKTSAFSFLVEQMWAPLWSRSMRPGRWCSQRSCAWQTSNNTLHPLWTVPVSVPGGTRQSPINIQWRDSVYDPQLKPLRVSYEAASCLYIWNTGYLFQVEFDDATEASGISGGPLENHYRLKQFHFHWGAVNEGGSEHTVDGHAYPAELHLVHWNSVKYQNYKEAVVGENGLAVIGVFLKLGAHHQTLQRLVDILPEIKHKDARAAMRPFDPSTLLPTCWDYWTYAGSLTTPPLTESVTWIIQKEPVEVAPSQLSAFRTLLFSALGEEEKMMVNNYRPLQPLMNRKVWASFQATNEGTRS
# Description: Inhibition of human carbonic anhydrase 5A by stopped-flow CO2 hydration assay
# Carbonic anhydrase 14 = Carbonic anhydrase 14 (Homo sapiens, UniProt Q9ULX7)
# Carbonic anhydrase 14, sequence (Q9ULX7 whole entry): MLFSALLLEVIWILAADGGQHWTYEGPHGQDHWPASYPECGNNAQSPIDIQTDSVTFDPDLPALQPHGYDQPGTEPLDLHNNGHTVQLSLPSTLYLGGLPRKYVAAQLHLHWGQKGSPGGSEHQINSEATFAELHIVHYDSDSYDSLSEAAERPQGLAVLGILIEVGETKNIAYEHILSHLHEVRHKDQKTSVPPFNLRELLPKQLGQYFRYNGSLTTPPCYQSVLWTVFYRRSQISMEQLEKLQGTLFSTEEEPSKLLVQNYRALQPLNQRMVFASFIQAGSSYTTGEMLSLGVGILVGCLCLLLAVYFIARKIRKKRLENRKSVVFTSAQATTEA
# Description: Inhibition of human carbonic anhydrase 14 by stopped-flow CO2 hydration assay
# [2] = biological target: Carbonic anhydrase 5B, mitochondrial (Homo sapiens, UniProt Q9Y2D0)
# Carbonic anhydrase 5B, mitochondrial, sequence (Q9Y2D0 whole entry): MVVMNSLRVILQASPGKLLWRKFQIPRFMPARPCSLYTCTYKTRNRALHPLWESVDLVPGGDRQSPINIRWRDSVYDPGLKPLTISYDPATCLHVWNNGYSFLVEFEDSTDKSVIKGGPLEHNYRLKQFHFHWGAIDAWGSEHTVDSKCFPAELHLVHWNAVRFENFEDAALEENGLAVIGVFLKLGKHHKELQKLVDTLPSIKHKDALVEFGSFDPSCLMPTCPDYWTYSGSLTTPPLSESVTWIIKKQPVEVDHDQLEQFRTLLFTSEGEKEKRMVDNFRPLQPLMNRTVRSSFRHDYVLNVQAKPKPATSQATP
# Description: Inhibition of human carbonic anhydrase 5B by stopped-flow CO2 hydration assay
# Carbonic anhydrase 12 = Carbonic anhydrase 12 (Homo sapiens, UniProt O43570)
# Carbonic anhydrase 12, sequence (O43570 whole entry): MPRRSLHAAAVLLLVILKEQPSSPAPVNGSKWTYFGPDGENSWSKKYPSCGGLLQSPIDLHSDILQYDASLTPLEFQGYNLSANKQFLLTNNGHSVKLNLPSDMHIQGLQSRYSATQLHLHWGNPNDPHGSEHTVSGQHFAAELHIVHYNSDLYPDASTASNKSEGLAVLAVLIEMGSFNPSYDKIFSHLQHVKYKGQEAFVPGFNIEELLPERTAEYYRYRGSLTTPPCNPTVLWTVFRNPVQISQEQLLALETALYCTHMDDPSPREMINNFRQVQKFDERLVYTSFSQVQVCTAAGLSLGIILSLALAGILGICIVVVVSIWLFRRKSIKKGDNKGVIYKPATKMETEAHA
# Description: Inhibition of human carbonic anhydrase 12 catalytic domain by stopped-flow CO2 hydration assay
# Carbonic anhydrase 6, sequence (P23280 whole entry): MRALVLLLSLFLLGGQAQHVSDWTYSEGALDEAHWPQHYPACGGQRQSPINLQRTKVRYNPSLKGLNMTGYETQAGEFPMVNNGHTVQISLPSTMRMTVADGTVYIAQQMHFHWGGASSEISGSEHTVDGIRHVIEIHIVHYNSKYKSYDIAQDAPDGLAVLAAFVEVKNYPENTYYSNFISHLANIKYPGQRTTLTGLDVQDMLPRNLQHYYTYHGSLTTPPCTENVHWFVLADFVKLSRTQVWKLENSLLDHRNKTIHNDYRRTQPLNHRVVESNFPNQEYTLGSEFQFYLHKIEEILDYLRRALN
# Carbonic anhydrase 7, sequence (P43166 whole entry): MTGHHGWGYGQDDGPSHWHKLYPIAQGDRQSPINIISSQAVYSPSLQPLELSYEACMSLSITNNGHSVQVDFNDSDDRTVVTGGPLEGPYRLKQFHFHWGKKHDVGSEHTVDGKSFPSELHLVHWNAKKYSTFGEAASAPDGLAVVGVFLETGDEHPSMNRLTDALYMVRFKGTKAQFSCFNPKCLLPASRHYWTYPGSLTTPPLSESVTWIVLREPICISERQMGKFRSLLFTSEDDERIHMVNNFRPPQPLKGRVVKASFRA
# Carbonic anhydrase 13, sequence (Q9D6N1 whole entry): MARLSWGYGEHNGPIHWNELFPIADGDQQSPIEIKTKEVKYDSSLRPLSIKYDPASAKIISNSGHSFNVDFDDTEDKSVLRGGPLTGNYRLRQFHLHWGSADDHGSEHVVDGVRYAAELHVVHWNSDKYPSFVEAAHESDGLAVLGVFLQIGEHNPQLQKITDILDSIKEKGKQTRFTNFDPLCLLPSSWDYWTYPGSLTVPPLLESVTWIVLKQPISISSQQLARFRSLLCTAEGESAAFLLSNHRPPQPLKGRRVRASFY
SMILES,pKi (Carbonic anhydrase 13),pKi (Carbonic anhydrase 9),pKi (Carbonic anhydrase 7),pKi (Carbonic anhydrase 6),pKi (Carbonic anhydrase 3),pKi (Carbonic anhydrase 4),pKi [1],pKi (Carbonic anhydrase 14),pKi [2],pKi (Carbonic anhydrase 12)
Oc1cc(F)ccc1F,4.16,4.16,3.26,4.04,4.97,3.37,4.92,4.47,4.29,3.22
N#Cc1ccc(O)cc1 [4-CYANOPHENOL],4.35,4.25,3.11,,,3.20,3.28,,3.25,
CC(=O)Nc1ccc(O)cc1 [ACETAMINOPHEN],4.52,4.15,,3.18,5.15,4.94,3.10,4.97,3.53,5.39
Oc1ccccc1O [CATECHOL],4.91,3.94,3.15,3.22,4.89,,4.26,4.31,5.38,5.05
Oc1ccc(O)cc1 [HYDROQUINONE],4.13,4.49,3.05,3.28,5.09,,4.85,4.38,4.90,5.11
O=C(O)c1ccc(O)cc1 [PARABEN],4.07,3.93,3.15,4.94,3.16,3.09,5.04,4.46,,5.32
Oc1cccc(O)c1 [RESORCINOL],4.20,4.16,3.19,3.26,3.22,3.24,5.06,4.97,5.15,5.12
